In patent US10499637B2, “Compositions comprising flavonoid-containing extracts from plants of the genus citrus and/or isolated citrus flavonoids and specific cationic surface active agents, and said composition for use as an agent for treating infestations with head lice” (MEDA AB, priority 2009, dated 2019):

Columns and labels:
[1] = test system: Head lice, Pediculus humanus capitis; test: Test 1: in-vitro assay with head lice, test substances in basic solution; conditions: for Vitality of the lice after 120 min: dead / Vitality of the lice after 360 min: dead: number of dead lice of 5 incubated; for Vitality of the lice after 120 min: dead / Vitality of the lice after 360 min: dead / Vitality of the lice after 30 min: immobile / Vitality of the lice after 120 min: mobile / Vitality of the lice after 360 min: mobile: basic solution; for Vitality of the lice after 30 min: immobile: number of immobile lice of 5 incubated; for Vitality of the lice after 30 min: mobile / Vitality of the lice after 120 min: mobile / Vitality of the lice after 360 min: mobile: number of mobile lice of 5 incubated; for Vitality of the lice after 30 min: mobile: basic solution 10% lauryl glucoside, 5% glycerin, pH 6.0
Method: Head lice, Pediculus humanus capitis, were obtained by combing infested children from whom assent and consent from the parents had been obtained.
Lice were used for the experiments mostly immediately, but not later than 4 hours after removing from the head. Adult lice, mixed sexes, were fully immersed in the test solutions for 3 to 15 minutes, then thoroughly rinsed with plenty of water to remove any residuals of the test medication. Three replicates of 5 or 10 lice each, plus one control for each batch of lice, were used for any test formulation. The lice were transferred to dry filter paper and kept for observation for up to 24 hours.
The solutions were formulated by addition of the tests substances listed in Table 1 to a basic solution consisting of 10% lauryl glucoside, 5% glycerin and purified water ad 100% and adjusted to pH 6.0 with citric acid. In each test solution 5 lice were incubated, in the controls consisting of the basic solution without any additions 10 lice were incubated.
“Dead” means that neither movements of the legs nor of the intestine were observed.
At 30 min only mobile or immobile lice were observed, whereas dead lice were observed only at 120 and 360 min.

[2] = test system: Aedes aegypti larvae; test: Naringin against Aedes aegypti larvae, experiments in applicant's laboratory; conditions: thousand fold higher concentration of naringin than in the literature, without acetonitrile in the assay
Text: A putative insecticidal activity of naringin is of interest in the present context.

Row | Compound | Vitality of the lice after 120 min: dead [1] | Vitality of the lice after 360 min: dead [1] | Vitality of the lice after 30 min: immobile [1] | Vitality of the lice after 30 min: mobile [1] | Vitality of the lice after 120 min: mobile [1] | Vitality of the lice after 360 min: mobile [1] | killing of Aedes aegypti larvae [2]
1 | O=C1C[C@@H](c2ccc(O)cc2)Oc2cc(O)cc(O)c21 [1.0% naringenin, (S)-2,3-dihydro-5,7-dihydroxy-2-(4-hydroxyphenyl)-4H-1-benzopyran-4-one] | 0 | 0 | 0 | 5 | 5 | 5 | 
2 | CCCCCCCCCCCCCCCC(=O)NCCC[N+](C)(C)C.[Cl-] [2.0% palmitamidopr., palmitamidopropyltrimonium chloride] | 0 | 1 | 0 | 5 | 5 | 4 | 
3 | COc1ccc([C@@H]2CC(=O)c3c(O)cc(O[C@@H]4O[C@H](CO[C@@H]5O[C@@H](C)[C@H](O)[C@@H](O)[C@H]5O)[C@@H](O)[C@H](O)[C@H]4O)cc3O2)cc1O [1.0% hesperidin, (2S)-7-((6-O-(6-desoxy-α-L-mannopyranosyl)-β-D-glucopyranosyl)oxy)-2,3-dihydro-5-hydroxy-2-(3-hydroxy-4-methoxyphenyl)-4H-1-benzopyran-4-one] | 0 | 0 | 0 | 5 | 5 | 5 | 
4 | C[C@@H]1O[C@@H](O[C@H]2[C@H](Oc3cc(O)c4c(c3)O[C@H](c3ccc(O)cc3)CC4=O)O[C@H](CO)[C@@H](O)[C@@H]2O)[C@H](O)[C@H](O)[C@H]1O [1.0% naringin, 7-[[2-O-(6-desoxy-α-L-mannopyra-nosyl)-β-D-glucopyranosyl]oxy]-2,3-dihydro-5-hydroxy-2-(4-hydroxy-phenyl)-4H-1-benzopyran-4-one] | 0 | 0 | 0 | 5 | 5 | 5 | did not kill
5 | COc1ccc([C@@H]2CC(=O)c3c(O)cc(O)cc3O2)cc1O [1.0% hesperetin, (S)-2,3-dihydro-5,7-dihydroxy-2-(3-hydroxy-4-methoxyphenyl)-4H-1-benzopyran-4-one] | 0 | 0 | 0 | 5 | 5 | 5 | 
6 | CCCCCCCCCCCCCCCCCCCCCC[N+](C)(C)C.[Cl-] [2.0% behentrim., behentrimonium chloride] | 0 | 0 | 0 | 5 | 5 | 5 | 
